Consider 89 compounds from a melting point compilation (Tetko et al.; mined from patent text by program, amines drawn as free bases though some values may be those of a salt).

`COC(=O)c1cscc1NC(=O)COc1ccc(-c2ccccc2)cc1` yielded a melting point of 132 to 135 °C.

On to `CCOC(=O)CNc1c(Br)cc(Br)cc1Br`, for which the melting point is 81 to 82 °C.

Turning to `Cc1cc2c(c3ccc(=O)[nH]c13)OC(CNC(=O)[C@@H]1CCCN1C(=O)OCc1ccccc1)C2` (some centres undefined), the melting point was 131 to 132 °C.

Turning to `O=C(O)CCC(=NOCc1ccc(OCc2cn3ccccc3n2)cc1)c1ccccc1`, the melting point lay within 180 to 182 °C.

Regarding `O=S(=O)(NCC1CC1)c1cccc(-c2cc(-c3nc(-c4ccc(C(F)(F)F)cc4)cc(C(F)(F)F)n3)ccn2)c1`, the melting point came out at 134 °C.

`CN(C)c1ccc(S(=O)(=O)NCCCCC(=O)O)cc1` had a melting point of 105 to 110 °C.

For the compound `NC(=O)c1c[nH]c2c1ccc1c3ccccc3[nH]c12`, the melting point was more than 300 °C.

`O=C1NC(=O)C(Cc2c[nH]c3ccc(Cl)cc23)N1` (centres undefined) registered a melting point of 226 to 228 °C.

Compound `N#Cc1c(N)nc2ccc(N3CCOCC3)cc2c1Cl` yielded a melting point of 206 °C.

Regarding `C1=Nc2c(cnn2-c2ccccc2)C2=N[C@@H](Cc3ccccc3)CN12`, the melting point was 255 °C.

For `O=S(=O)(CCCCl)c1ccccc1`, the melting point was 55 to 58 °C.

On to `O=C(CN1CCNCC1C(=O)CCCCCNO)Nc1nc2ccccc2s1` (centres undefined), for which the melting point fell in the range of 150 to 152 °C.

Regarding `CC(=O)NNC1=Nc2sc(Cl)cc2C(c2ccccc2F)=NC1`, the melting point fell in the range of 207 to 209 °C.

As to `CN1CCC(N2CCN(c3cccc(-c4cn[nH]c4N)c3)CC2)CC1`, the melting point fell in the range of 213 to 220 °C.

As to `CCC([O-])=C(C(=O)OCc1ccccc1)N1C(=O)CC1[N+](CC)(CC)CC` (centres undefined), the melting point was 107 °C.

The compound `CCN1c2ncccc2C(=O)Nc2c(C(F)(F)F)cc(C)nc21` came in with a melting point of 150 to 151 °C.

Compound `Cc1c(C)c2c(c(C)c1O)C(=O)CC(C)(COc1ccc([N+](=O)[O-])cc1)O2` (centres undefined) came in with a melting point of 199 to 204 °C.

`COC(=O)C(C)(C)NC(=O)Nc1ccc(Cl)c(C(F)(F)F)c1`: the melting point lay within 141 to 142 °C.

Consider `COc1ccc(Cl)cc1NC(=O)[C@H]1[C@H](c2ccc(S(N)(=O)=O)cc2)C1(C)C` (relative stereo), for which the melting point was 129 to 133 °C.

As for `CCC(Cc1ccc(OCCN2CCOCC2)cc1)(C(=O)NO)S(=O)(=O)c1ccc(OC)cc1` (centres undefined), the melting point turned out to be 51 °C.

Take `COc1cccc(NC(=O)NCC2(c3ccccc3)CCCCC2)c1`: the melting point was 120 to 122 °C.

In turn, `CN(C)CCn1c(-c2cccc(C(F)(F)F)c2)cc2c1CCSC2` came in with a melting point of 88.5 to 90 °C.

Regarding `O=C(O)c1cn2c3c(c(N4CCN(Cc5ccccc5)CC4)ccc3c1=O)CCC2`, the melting point was in the range of 274 to 278 °C.

Regarding `O=C(O)c1ncn2c1CN=C(c1ccccc1)c1cc(Cl)ccc1-2`, the melting point fell in the range of 268 to 270 °C.

On to `COc1ccc(N2CCOCC2)c2sc(NC(=O)c3ccnc(CN(C)C(C)=O)c3)nc12`, for which the melting point was 228 to 230 °C.

Regarding `CC(C)(C)OC(=O)c1nc(C2CC2)[nH]c(=O)c1OCc1ccccc1`, the melting point is 164 °C.

The compound `CCN(CC)C(=O)n1ccc(S(=O)(=O)c2ccc(C)c(C)c2)n1` came in with a melting point of 85 to 86 °C.

For `CC(O)(CCCl)c1ccc(-c2ccc(Cl)cc2)cc1` (centres undefined), the melting point fell in the range of 98 to 100 °C.

On to `CC(=O)Nc1ncc(-c2ccc(=O)n(C(C)C)n2)c(-c2ccccc2)n1`, for which the melting point is 209 to 210 °C.

For the compound `CCS(=O)(=O)Nn1c(=O)[nH]c2cc(C(F)(F)F)c(-n3cnnc3)cc2c1=O`, the melting point was 185 to 195 °C.

`CC(=O)NCC1CN(c2ccc(N3CCN(c4ccc([N+](=O)[O-])s4)CC3)c(F)c2)C(=O)O1` (centres undefined) registered a melting point of 171 to 174 °C.

For the compound `CC(C)OC(=O)C(C(=O)NCc1ccccc1)=C1SCS1`, the melting point lay within 93 to 94 °C.

`Cc1nc(-c2c(F)cccc2F)n[nH]1` returned a melting point of 195 to 198 °C.

`Nc1nc(=O)n([C@@H]2CC[C@H](CO)O2)cc1F` returned a melting point of 147 to 149 °C.

Turning to `COc1cccc(CNC(=O)c2nc3scc(CC(=O)O)c3c(=O)[nH]2)c1`, the melting point lay in the range of 228 to 229 °C.

On to `COC(=O)c1cnc(C(=O)OC)c([N+](=O)[O-])c1`, for which the melting point lay in the range of 82 to 86 °C.

For the compound `Cc1cc(SCc2oc(-c3ccc(C(F)(F)F)cc3)nc2C)ccc1OCC(=O)O`, the melting point fell in the range of 156 to 157 °C.

For the compound `Cc1cc(C)c2ncc(NC(=O)C=Cc3cc(C)c(O)c(C)c3)c(-c3ccccc3Cl)c2c1`, the melting point was 249 to 251 °C.

`OCC1CN(Cc2ccccc2)C(c2ccccc2)O1` (centres undefined) showed a melting point of 100 °C.

For `Cc1nc(N2CCCC(Cc3ccc(C(F)(F)F)cc3)C2=O)sc1C(=O)NCc1cccc(F)c1` (centres undefined), the melting point was 177 to 178 °C.

The compound `O=C(C=Cc1cccc(-c2ccc(O)cc2)c1)NO` returned a melting point of 127 to 128 °C.

On to `COC(=O)CCCCCCCCCCCNC(=O)NC12CC3CC(CC(C3)C1)C2`, for which the melting point worked out at 75 °C.

With `NC1=C(c2ccc(O)cc2)C(=O)c2ccc(O)cc21`, the melting point turned out to be 213 °C.

In the case of `CCOCc1cc2c(s1)CCCc1cc(=O)n(-c3ccc(C)cc3)nc1-2`, the melting point fell in the range of 92 to 93 °C.

In turn, `CC12CCC(S(=O)(=O)C(F)(F)F)=CC1=CCC1C2CCC2(C)C(C(=O)O)CCC12` (centres undefined) had a melting point of 182 °C.

Compound `O=C(CCCCOc1ccc(OCc2ccccc2)cc1)C(F)(F)F` returned a melting point of 95.5 to 96 °C.

`CCN(CC)CCN1Cc2nc3ccccc3c(=O)n2-c2ccccc2C1=O` registered a melting point of 117 to 119 °C.

The compound `CCn1c(-c2c(Cl)cccc2Cl)nc(-c2ccnc(OC)c2)c1-c1ccc(Cl)cc1` registered a melting point of 138 to 140 °C.

The compound `COc1cc(NC(=O)CC23CC4CC(CC(C4)C2)C3)cc(OC)c1` displayed a melting point of 144 to 146 °C.

`CCOC(=O)c1ncn2c1CN(C)C(=O)c1cnccc1-2` returned a melting point of 205 to 206 °C.

Compound `NC(=O)c1nccn1C1Cc2cc(Br)ccc2C1=O` (centres undefined) yielded a melting point of 240 °C.

In turn, `Cc1nc[nH]c1CSCCNC(=S)S` yielded a melting point of 127 to 129 °C.

`CCOC(=O)Nc1ccc(NC(=O)OCc2ccccc2)c(O)c1` had a melting point of 190 °C.

For the compound `CC(=O)Oc1cc(CCc2ccccc2)cc(OC(C)=O)c1OC(C)=O`, the melting point is 79.5 to 80 °C.

With `CNC(=O)n1nc(Oc2ccc(C(F)(F)F)cc2[N+](=O)[O-])cc1C`, the melting point was 70 to 72 °C.

`N#CC(CCC1C2CCN1CC2)(c1ccccc1)c1ccccc1` (centres undefined): the melting point is 79 to 81 °C.

`COC(=O)[C@H](Cc1ccccc1)NC(=S)Cc1ccc(C)cc1` showed a melting point of 84 to 86 °C.

The compound `CCCCc1c(C(=O)OCC)cc(O)c2c(OC)cccc12` had a melting point of 80 to 82 °C.

The compound `Cc1cc(-n2ccnc2)c2cccc(OCc3c(Cl)ccc(S(=O)(=O)N4CCOCC4)c3Cl)c2n1` registered a melting point of 148 °C.

`Cc1cc2nc(NC(=O)CO)sc2cc1C`: the melting point is 206 to 208 °C.

In turn, `NC(=O)N1CCC2(CC1)CN(c1ccccc1[N+](=O)[O-])c1ccccc12` had a melting point of 218 to 219 °C.

Consider `CCOC(=O)c1cc2cccc(N(C)S(=O)(=O)c3cccs3)c2[nH]1`, for which the melting point lay in the range of 164 to 165 °C.

`ClCc1coc(-c2ccc(Br)o2)n1`: the melting point is 90 to 92 °C.

In the case of `Nc1nc(-c2ccc(F)c3ccccc23)co1`, the melting point fell in the range of 171 to 174 °C.

`CC(C)(C)NC(=O)c1nn(-c2ccc(F)cc2F)c2c1C1CC3CC(C1)CC2C3` registered a melting point of 188 to 190 °C.

In turn, `O=C(c1ccc(Cl)cc1)c1cccc2c1CCCC2C(=O)O` (centres undefined) registered a melting point of 152 to 154 °C.

With `CN1CCN(c2cc3nc(C(C)(C)C)sc3cc2N=C=S)CC1`, the melting point was in the range of 124 to 126 °C.

As to `O=C1NC(N2CCCCCC2)=N/C1=C\c1c[nH]c2ncc(Cl)cc12`, the melting point lay in the range of 310 to 320 °C.

Compound `Clc1ccc2c(C3CCN(CC4Cc5ccccc5C4)CC3)c[nH]c2c1Cl` displayed a melting point of 141 to 142 °C.

Regarding `CC1Nc2ccc(-c3cccc(Cl)c3)cc2C(C)(C)O1` (centres undefined), the melting point was in the range of 144 to 146 °C.

With `CC(Cc1ccc(OCc2cccc(C(F)(F)F)c2)cc1)NC(=O)CC(c1ccccc1)c1ccccc1` (centres undefined), the melting point is 110 to 113 °C.

`CCCCCn1c(=O)c(-c2ccccc2)c2n(c1=O)CCCS2`: the melting point fell in the range of 100 to 101 °C.

With `Cc1ccc2nc(SCCN(C(C)C)C(C)C)[nH]c2c1`, the melting point lay within 109 to 110 °C.

Compound `CC1(C)Oc2ccc([N+](=O)[O-])cc2C(n2ccccc2=O)=C1CBr` had a melting point of 221 °C.

The compound `CN1C(=O)C(N)N=C(c2ccccc2)c2cnccc21` (centres undefined) showed a melting point of 109 to 123 °C.

On to `COC1CC(C(C)CCCC(C)C)C2(C)CCC3C(=C12)CCC1CC(O)CCC13C` (centres undefined), for which the melting point is 127 to 128 °C.

`Nc1c(C(F)(F)F)cc(OCc2ccccc2)cc1C(F)(F)F` displayed a melting point of 58 to 59 °C.

Take `COC(=O)[C@H]1CC[C@@H](c2ccc(F)cc2)N1S(=O)(=O)c1ccc(C)cc1` (racemic): the melting point worked out at 91 °C.

Consider `CC(O)C#Cc1ncn2c1CN(C)C(=O)c1ccccc1-2` (centres undefined), for which the melting point is 161 to 162 °C.

For `COc1cc2c(cc1OC)CN(CCCCNC(=O)c1cc(Br)cc(OC)c1OCCF)CC2`, the melting point was 127 to 129 °C.

`COc1ccc2c(N(C)CCc3ccccn3)noc2c1`: the melting point is 152 to 153 °C.

Take `CC(=O)Nc1ccc2cccc(Oc3cc(-c4ccc(C(F)(F)F)cc4)ncn3)c2n1`: the melting point lay in the range of 204 to 206 °C.

`Cc1ccccc1C(=O)Nc1ccc(C(=O)N2Cc3ccccc3-c3ccccc32)cc1` showed a melting point of 190 to 194 °C.

`COC(=O)Cc1ccc(OCCNC(=O)C2Cc3ccccc3N2S(=O)(=O)c2ccc(-c3cc(C)ccc3OC)cc2)cc1` (centres undefined) showed a melting point of 57 to 60 °C.

`CC1(C)CON(Cc2c(Cl)cccc2[N+](=O)[O-])C1=O` registered a melting point of 86 to 88 °C.

Take `COc1ccc(Cc2nc(C(C)=O)c[nH]2)cc1`: the melting point lay in the range of 147 to 148 °C.

For `CCCc1c(OCCCOc2ccc(C(=O)O)cc2Cl)ccc(C(C)=O)c1O`, the melting point is 171 to 172 °C.

Consider `CCN(CC)CCCNC(=O)Cn1ncc(-c2ccc([N+](=O)[O-])cc2)c1-c1ccccc1`, for which the melting point lay in the range of 100 to 101 °C.

In turn, `Cn1c2ccc(F)cc2c(=O)n2nc(C#N)cc12` came in with a melting point of 331 to 340 °C.

Broadly, the melting point is the temperature of the solid-liquid transition.
